Data: PubChem BioAssay AID212 (DTP/NCI, 2004)
Values joined by “and” are separate entries in the source; they are usually repeats but may differ in a detail not shown here. Equal entries are not always repeated. Inconclusive results are not listed.

Test system: BDF1 mice, colon carcinoma 38 sc, T/C %
Assay: NCI In Vivo Anticancer Drug Screen. Data for tumor model Colon Carcinoma 38 (subcutaneous) in B6D2F1 (BDF1) mice
Conditions: endpoint: median tumor weight (est.), higher = larger tumour
Summary of the method: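 Compound antitumor activity was assessed in mice carrying transplantable tumors. Survival or tumor size was recorded, and each value is the treated-group measurement divided by that of the vehicle-treated control group.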

[1] = dose: 50.0 mg/kg/injection, schedule: Q07DX002 (ip), vehicle: Klucel (hydroxypropylcellulose) (HPC)
[2] = dose: 200.0 mg/kg/injection, schedule: Q07DX002 (ip), vehicle: Klucel (hydroxypropylcellulose) (HPC)
[3] = dose: 400.0 mg/kg/injection, schedule: Q07DX002 (ip), vehicle: Klucel (hydroxypropylcellulose) (HPC)
[4] = dose: 12.5 mg/kg/injection, schedule: Q07DX002 (ip), vehicle: Klucel (hydroxypropylcellulose) (HPC)
[5] = dose: 25.0 mg/kg/injection, schedule: Q07DX002 (ip), vehicle: Klucel (hydroxypropylcellulose) (HPC)
[6] = dose: 100.0 mg/kg/injection, schedule: Q07DX002 (ip), vehicle: Klucel (hydroxypropylcellulose) (HPC)
[7] = dose: 0.5 mg/kg/injection, schedule: Q07DX002 (ip), vehicle: Klucel (hydroxypropylcellulose) (HPC)
[8] = dose: 2.0 mg/kg/injection, schedule: Q07DX002 (ip), vehicle: Klucel (hydroxypropylcellulose) (HPC)
[9] = dose: 200.0 mg/kg/injection, schedule: Q07DX002 (ip), vehicle: saline with Tween-80
[10] = dose: 400.0 mg/kg/injection, schedule: Q07DX002 (ip), vehicle: saline with Tween-80

Compound: CS(=O)(=O)OCCN(CCOS(C)(=O)=O)c1ccc(C=Nc2ccc(-c3csc(COc4ccccc4)n3)cc2)cc1
- T/C [1]: 158 % of control
- T/C [2]: 97 % of control and 100 % of control
- T/C [3]: 46 % of control

Compound: O=C1CC2(C(=O)N1CN1CCCCC1)c1ccccc1-c1ccccc12
- T/C [4]: 58 % of control
- T/C [5]: 97 % of control
- T/C [1]: 68 % of control
- T/C [6]: 102 % of control
- T/C [2]: 101 % of control
- T/C [3]: 81 % of control

Compound: FC(F)(F)c1nc2nc(Cl)c(Cl)nc2[nH]1
- T/C (dose: 25.0 mg/kg/injection, schedule: Q07DX002 (ip), vehicle: saline with Tween-80): 93 % of control

Compound: CCCC(=O)OCc1cc(=O)n(C)c2c3c4c(cc12)c(C)cc(=O)n4CO3
- T/C (dose: 6.25 mg/kg/injection, schedule: Q07DX002 (ip), vehicle: Klucel (hydroxypropylcellulose) (HPC)): 99 % of control
- T/C [4]: 96 % of control
- T/C [5]: 162 % of control
- T/C [1]: 150 % of control
- T/C [6]: 64 % of control

Compound: C1CC[N-]CC1.[Cl][Pt+2][Cl].[NH-]C1CC1
- T/C (dose: 6.25 mg/kg/injection, schedule: Q07DX002 (ip), vehicle: water): 75 % of control
- T/C (dose: 25.0 mg/kg/injection, schedule: Q07DX002 (ip), vehicle: water): 86 % of control
- T/C (dose: 100.0 mg/kg/injection, schedule: Q07DX002 (ip), vehicle: water): 163 % of control

Compound: CCN(CC)CCCC(C)Nc1c2ccc(Cl)cc2nc2ccc(OC)cc12 (centres undefined)
- T/C (dose: 16.0 mg/kg/injection, schedule: Q07DX003 (ip), vehicle: suspension in saline): 96 % of control and 103 % of control
- T/C (dose: 32.0 mg/kg/injection, schedule: Q07DX003 (ip), vehicle: suspension in saline): 95 % of control and 106 % of control
- T/C (dose: 64.0 mg/kg/injection, schedule: Q07DX003 (ip), vehicle: suspension in saline): 53 % of control
- T/C (dose: 128.0 mg/kg/injection, schedule: Q07DX003 (ip), vehicle: suspension in saline): 79 % of control

Compound: c1cc(-c2cc3ccc(C4=NCCN4)cc3[nH]2)ccc1C1=NCCN1
- T/C (dose: 6.25 mg/kg/injection, schedule: Q07DX002 (ip), vehicle: saline): 84 % of control
- T/C (dose: 6.25 mg/kg/injection, schedule: Q07DX002 (ip), vehicle: suspension in saline): 90 % of control
- T/C (dose: 12.5 mg/kg/injection, schedule: Q07DX002 (ip), vehicle: saline): 92 % of control
- T/C (dose: 12.5 mg/kg/injection, schedule: Q07DX002 (ip), vehicle: suspension in saline): 87 % of control
- T/C (dose: 25.0 mg/kg/injection, schedule: Q07DX002 (ip), vehicle: saline): 100 % of control
- T/C (dose: 25.0 mg/kg/injection, schedule: Q07DX002 (ip), vehicle: suspension in saline): 105 % of control
- T/C (dose: 50.0 mg/kg/injection, schedule: Q07DX002 (ip), vehicle: saline): 84 % of control
- T/C (dose: 50.0 mg/kg/injection, schedule: Q07DX002 (ip), vehicle: suspension in saline): 98 % of control

Compound: CC1C2CCC3C(O)C2(CC(O)C2(O)C1CC(O)C2(C)C)CC3(C)O (centres undefined)
- T/C [7]: 103 % of control
- T/C [8]: 181 % of control

Compound: Nc1ccc2ccc(NS(=O)(=O)N3CCCCC3)cc2c1
- T/C (dose: 100.0 mg/kg/injection, schedule: Q07DX002 (ip), vehicle: saline with Tween-80): 120 % of control
- T/C [9]: 99 % of control
- T/C [10]: 124 % of control

Compound: C[C@@]12C(=O)OC(=O)[C@]1(C)[C@H]1CC[C@@H]2O1
- T/C (dose: 0.12 mg/kg/injection, schedule: Q07DX002 (ip), vehicle: Klucel (hydroxypropylcellulose) (HPC)): 88 % of control
- T/C (dose: 0.25 mg/kg/injection, schedule: Q07DX002 (ip), vehicle: Klucel (hydroxypropylcellulose) (HPC)): 65 % of control
- T/C [7]: 69 % of control
- T/C (dose: 1.0 mg/kg/injection, schedule: Q07DX002 (ip), vehicle: Klucel (hydroxypropylcellulose) (HPC)): 76 % of control
- T/C [8]: 86 % of control

Compound: COc1cc(C(C)(C)C)cc(OC)c1C(O)(c1c(OC)cc(C(C)(C)C)cc1OC)c1c(OC)cc(C(C)(C)C)cc1OC
- T/C (dose: 12.5 mg/kg/injection, schedule: Q07DX002 (ip), vehicle: saline with Tween-80): 70 % of control and 77 % of control
- T/C (dose: 50.0 mg/kg/injection, schedule: Q07DX002 (ip), vehicle: saline with Tween-80): 95 % of control and 102 % of control
- T/C [9]: 88 % of control
- T/C [10]: 62 % of control
